Assay results from PubChem BioAssay AID330 (DTP/NCI, 2004).
Toxic doses and inconclusive results are not listed. How the source made its calls: active means survival T/C of 150% or more; inactive means T/C below 125% in these data.

Tested on: P388 leukemia ip, CD2F1 mice, survival T/C
Assay: NCI In Vivo Anticancer Drug Screen. Data for tumor model P388 Leukemia (intraperitoneal) in CD2F1 (CDF1) mice
Conditions: endpoint: median survival time, higher = longer survival
How it was run: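 Mice carrying the transplanted tumor received test compound or vehicle. Survival was recorded in each group, and the value is the treated-group measurement divided by that of the vehicle-treated control group.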

[1] = dose: 50.0 mg/kg/injection, schedule: Q01DX005 (ip), vehicle: Klucel (hydroxypropylcellulose) (HPC)
[2] = dose: 100.0 mg/kg/injection, schedule: Q01DX005 (ip), vehicle: Klucel (hydroxypropylcellulose) (HPC)
[3] = dose: 200.0 mg/kg/injection, schedule: Q01DX005 (ip), vehicle: Klucel (hydroxypropylcellulose) (HPC)

Measured: T/C

OCC1COC(c2ccccc2)=N1 (configuration not stated)
inactive: [1] 100 % of control | [2] 99 % of control | [3] 100 % of control

COc1cc2c(c(C3(O)C(=O)N(C)c4ccccc43)c1OC)OCO2 (configuration not stated)
inactive: dose: 60.0 mg/kg/injection, schedule: Q01DX005 (ip), vehicle: saline with Tween-80 101 % of control | dose: 120.0 mg/kg/injection, schedule: Q01DX005 (ip), vehicle: saline with Tween-80 98 % of control | dose: 240.0 mg/kg/injection, schedule: Q01DX005 (ip), vehicle: saline with Tween-80 98 % of control

CCCCOC(=O)CCC(CC(=O)OCCCC)C(=O)OCCCC (configuration not stated)
inactive: dose: 50.0 mg/kg/injection, schedule: Q01DX005 (ip), vehicle: saline 103 % of control | dose: 100.0 mg/kg/injection, schedule: Q01DX005 (ip), vehicle: saline 103 % of control | dose: 200.0 mg/kg/injection, schedule: Q01DX005 (ip), vehicle: saline 105 % of control

C=C1C(=O)C23C(O)CC4C(C)(C)C(OC(C)=O)C(OC(C)=O)CC4(C)C2CCC1C3O (configuration not stated)
inactive: dose: 11.88 mg/kg/injection, schedule: Q01DX005 (ip), vehicle: Klucel (hydroxypropylcellulose) (HPC) 115 % of control | dose: 23.75 mg/kg/injection, schedule: Q01DX005 (ip), vehicle: Klucel (hydroxypropylcellulose) (HPC) 112 % of control | dose: 47.5 mg/kg/injection, schedule: Q01DX005 (ip), vehicle: Klucel (hydroxypropylcellulose) (HPC) 112 % of control

C=CC1(C)CC(=O)C2(O)C(C)(O1)C(OC(C)=O)C(O)C1C(C)(C)CCC(O)C12C (configuration not stated)
inactive: dose: 2.0 mg/kg/injection, schedule: Q01DX005 (ip), vehicle: other 99 % of control | dose: 4.0 mg/kg/injection, schedule: Q01DX005 (ip), vehicle: other 100 % of control | dose: 8.0 mg/kg/injection, schedule: Q01DX005 (ip), vehicle: other 95 % of control | dose: 16.0 mg/kg/injection, schedule: Q01DX005 (ip), vehicle: other 94 % of control

Cc1ccc(CC(=O)O)c2c1C(=O)CC2
inactive: dose: 12.5 mg/kg/injection, schedule: Q01DX009 (ip), vehicle: distilled water + Tween-80 92 % of control | dose: 25.0 mg/kg/injection, schedule: Q01DX009 (ip), vehicle: distilled water + Tween-80 90 % of control | dose: 50.0 mg/kg/injection, schedule: Q01DX009 (ip), vehicle: distilled water + Tween-80 90 % of control | dose: 100.0 mg/kg/injection, schedule: Q01DX009 (ip), vehicle: distilled water + Tween-80 90 % of control | dose: 200.0 mg/kg/injection, schedule: Q01DX009 (ip), vehicle: distilled water + Tween-80 90 % of control

C(=N/c1ccccn1)/c1ccc(/C=N\c2ccccn2)cc1
inactive: dose: 50.0 mg/kg/injection, schedule: Q01DX009 (ip), vehicle: saline with Tween-80 108 % of control | dose: 100.0 mg/kg/injection, schedule: Q01DX009 (ip), vehicle: saline with Tween-80 100 % of control | dose: 200.0 mg/kg/injection, schedule: Q01DX009 (ip), vehicle: saline with Tween-80 106 % of control | dose: 400.0 mg/kg/injection, schedule: Q01DX009 (ip), vehicle: saline with Tween-80 116 % of control

COc1ccc(OC)c(Cc2cnc3nc(N)nc(N)c3c2C)c1
active: dose: 40.0 mg/kg/injection, schedule: Q01DX005 (ip), vehicle: dextrose 170 % of control | dose: 100.0 mg/kg/injection, schedule: Q04DX003 (ip), vehicle: dextrose 166 % of control
inactive: dose: 10.0 mg/kg/injection, schedule: Q01DX005 (ip), vehicle: dextrose 113 % of control | dose: 10.0 mg/kg/injection, schedule: Q01DX005 (ip), vehicle: water 112 % of control | dose: 25.0 mg/kg/injection, schedule: Q04DX003 (ip), vehicle: dextrose 115 % of control

CO[C@@H]1C2=CC=CC=C[C@H]2n2c(=O)n(C)c(=O)n21
inactive: [1] 100 % of control | dose: 75.0 mg/kg/injection, schedule: Q01DX005 (ip), vehicle: other 109 % of control | [2] 98 % of control | dose: 150.0 mg/kg/injection, schedule: Q01DX005 (ip), vehicle: other 115 % of control | [3] 102 % of control | dose: 300.0 mg/kg/injection, schedule: Q01DX005 (ip), vehicle: other 111 % of control

O=C1CSC(=S)N1c1ccc(F)cc1F
inactive: dose: 50.0 mg/kg/injection, schedule: Q01DX009 (ip), vehicle: suspension in saline 97 % of control | dose: 100.0 mg/kg/injection, schedule: Q01DX009 (ip), vehicle: suspension in saline 100 % of control | dose: 200.0 mg/kg/injection, schedule: Q01DX009 (ip), vehicle: suspension in saline 100 % of control

O=C(O)CCN1C(=S)CSC1=S
inactive: dose: 50.0 mg/kg/injection, schedule: Q01DX009 (ip), vehicle: Klucel (hydroxypropylcellulose) (HPC) 107 % of control | dose: 100.0 mg/kg/injection, schedule: Q01DX009 (ip), vehicle: Klucel (hydroxypropylcellulose) (HPC) 103 % of control | dose: 200.0 mg/kg/injection, schedule: Q01DX009 (ip), vehicle: Klucel (hydroxypropylcellulose) (HPC) 100 % of control
